In patent publication US8604202B2, “Thienopyridone derivatives as AMP-activated protein kinase (AMPK) activators” (Merck Patent GmbH, priority 2008, dated 2013):

Experiments:
[1] = biological target: T1, AMPK protein (recombinant α1β1γ2) (Homo sapiens, UniProt Q13131+Q9Y478); experiment: AMPK enzymatic activity (Delfia, AMARA peptide); assay type: biochemical; details: compound 30 μM vs AMP 30 μM; 125 μM ATP; 30 min room temperature; ratio 90% or higher = direct activator
T1 construct: made in house; host or cells: E. coli
T1 sequence (Q13131 whole entry): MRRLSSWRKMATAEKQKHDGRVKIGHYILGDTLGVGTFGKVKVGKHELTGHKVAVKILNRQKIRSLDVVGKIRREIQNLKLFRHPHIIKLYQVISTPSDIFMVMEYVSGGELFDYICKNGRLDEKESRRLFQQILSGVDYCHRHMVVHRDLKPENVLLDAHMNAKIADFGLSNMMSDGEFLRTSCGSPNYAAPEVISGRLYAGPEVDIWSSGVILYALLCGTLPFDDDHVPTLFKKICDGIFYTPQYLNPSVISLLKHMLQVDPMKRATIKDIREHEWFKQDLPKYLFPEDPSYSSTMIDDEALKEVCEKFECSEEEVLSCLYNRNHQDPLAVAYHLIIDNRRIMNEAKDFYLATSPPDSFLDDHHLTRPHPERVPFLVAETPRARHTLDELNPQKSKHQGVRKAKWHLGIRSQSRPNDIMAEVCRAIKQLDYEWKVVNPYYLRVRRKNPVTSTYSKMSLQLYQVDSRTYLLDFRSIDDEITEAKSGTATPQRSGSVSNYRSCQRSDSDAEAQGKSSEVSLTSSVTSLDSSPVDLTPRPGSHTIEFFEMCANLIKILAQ
T1 sequence (Q9Y478 whole entry): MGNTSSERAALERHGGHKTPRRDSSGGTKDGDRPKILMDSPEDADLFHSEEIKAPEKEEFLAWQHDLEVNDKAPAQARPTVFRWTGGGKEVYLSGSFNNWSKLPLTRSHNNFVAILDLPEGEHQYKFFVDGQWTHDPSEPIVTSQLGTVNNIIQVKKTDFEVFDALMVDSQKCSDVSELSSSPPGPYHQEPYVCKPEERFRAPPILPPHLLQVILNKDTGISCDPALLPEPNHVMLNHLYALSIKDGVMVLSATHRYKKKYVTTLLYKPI
T1 sequence (Q9UGJ0 whole entry partner): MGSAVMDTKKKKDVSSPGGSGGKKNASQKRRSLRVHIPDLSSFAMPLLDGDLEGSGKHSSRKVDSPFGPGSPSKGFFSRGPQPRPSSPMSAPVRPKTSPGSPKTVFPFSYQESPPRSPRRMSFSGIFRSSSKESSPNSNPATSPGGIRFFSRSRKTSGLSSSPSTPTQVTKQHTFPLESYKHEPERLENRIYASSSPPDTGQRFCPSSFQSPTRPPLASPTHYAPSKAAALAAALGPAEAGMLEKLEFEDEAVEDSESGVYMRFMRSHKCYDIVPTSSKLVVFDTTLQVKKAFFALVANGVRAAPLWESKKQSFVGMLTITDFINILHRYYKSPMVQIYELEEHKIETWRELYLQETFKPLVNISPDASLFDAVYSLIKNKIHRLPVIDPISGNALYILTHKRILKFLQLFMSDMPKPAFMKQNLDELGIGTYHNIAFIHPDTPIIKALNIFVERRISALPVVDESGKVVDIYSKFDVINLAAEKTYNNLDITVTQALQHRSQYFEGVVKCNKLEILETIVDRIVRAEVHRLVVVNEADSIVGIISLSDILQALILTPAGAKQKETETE
Experimental: The following biological test allows the determination of the efficacy of such compounds of formula (I) onto AMPK protein (recombinant α1β1γ2).
Human recombinant AMPK enzyme was expressed in E. Coli and was reactivated in vitro by LKB1 prior to enzyme activity determination.
AMPK enzyme activities were assayed by using A Delfia technology. AMPK enzyme activities were carried out in microtiter plates (50 mM Hepes buffer, pH 7.4 with 125 μM ATP respectively) in the presence of a synthetic peptide substrate (AMARAASAAALARRR, the “AMARA” peptide) and activators in serial dilutions. Reactions were initiated by the addition of AMPK (50-100 ng). Following mixing, the plates were incubated for 30 min at room temperature. Enzyme activity was assayed by using an anti-phosphoserine antibody to measure the quantity of phosphate incorporated into the AMARAA.
Ratio between the % of control (basal activity) of compound of formula (I) at 30 μM and the % of control (basal activity) of AMP (natural substrate) at 30 μM. Compounds of formula (I) in the table II are considered as direct activator of AMPK if the ratio is 90% or higher.

[2] = tested on: H-2 Kb cells; experiment: Glucose uptake in H-2 Kb cells (in vitro cellular test); assay type: cell-based, mouse; details: Mus musculus; differentiated H-2 Kb muscle cells, 4 hours incubation, 2-deoxy-D-[3H]glucose 10 min; read-out: activity: Concentration of compound for a glucose uptake equal or higher to glucose uptake induced by insulin (170 nM)
Experimental: The following cellular test allows the determination of the effect of AMPK activators such as compounds of formula (I) onto glucose uptake in a muscle cellular model.
H-2 Kb cells derived from heterozygous H-2 Kb tsA58 transgenic mouse were grown in 24-well in plates coated with matrigel and were cultured at 33° C. for 4 days under permissive conditions, as described previously by Fryer et al. (Diabetes 49 (12): 1978, 2000).
For differentiation in muscle, cells were switched to non-permissive culture conditions (37° C. in the absence of interferon-γ). After 3 days, cells were incubated for 4 hours in DMEM 1 g/l glucose culture medium containing different concentrations of the tested molecules. Then glucose uptake was measured by incubating the cells for 10 min with radiolabelled 2-deoxy-D-[1, 2 ^3H] glucose. Glucose uptake was terminated by rapidly washing the plates 2 times with ice-cold NaCl 0.9%. The cells were then solubilized in 0.1N NaOH for 30 min. Radioactivity was determined by liquid scintillation counting.
Activity table III: Concentration of compound (1) for a glucose uptake equal or higher to glucose uptake induced by insulin (170 nM)

Compound	activity: Ratio between the % of control (basal activity) of compound of formula (I) at 30 μM and the % of control (basal activity) of AMP at 30 μM [1]	EC (glucose uptake equal or higher to insulin 170 nM) [2]
O=c1[nH]c2scc(-c3ccc(-c4cccc(O)c4)cc3)c2c(O)c1-c1ccccc1 [Compound 9, 4-hydroxy-3-(3′-hydroxybiphenyl-4-yl)-5-phenyl-6,7-dihydro-thieno[2,3-b]pyridin-6-one]	120%	> 10 µM
O=c1[nH]c2scc(-c3ccc(-c4ccccc4F)cc3)c2c(O)c1-c1ccccc1 [Compound 6, 3-(2′-fluorobiphenyl-4-yl)-4-hydroxy-5-phenyl-6,7-dihydro-thieno[2,3-b]pyridin-6-one]	191%	> 10 µM
Cc1cccc(-c2ccc(-c3csc4[nH]c(=O)c(-c5cccnc5)c(O)c34)cc2)c1 [Compound 36, 4-hydroxy-3-(3′-methylbiphenyl-4-yl)-5-pyridin-3-yl-6,7-dihydro-thieno[2,3-b]pyridin-6-one]	156%	> 10 µM
O=c1[nH]c2scc(-c3ccc(-c4ccccc4O)cc3)c2c(O)c1-c1ccccc1 [Compound 4, 4-hydroxy-3-(2′-hydroxybiphenyl-4-yl)-5-phenyl-6,7-dihydro-thieno[2,3-b]pyridin-6-one]	126%	> 10 µM
O=c1[nH]c2scc(-c3ccc(-c4ccc(O)cc4)cc3)c2c(O)c1-c1ccncc1 [Compound 29, 4-hydroxy-3-(4′-hydroxybiphenyl-4-yl)-5-pyridin-4-yl-6,7-dihydro-thieno[2,3-b]pyridin-6-one]	213%	–
Cc1ccccc1-c1ccc(-c2csc3[nH]c(=O)c(-c4cccnc4)c(O)c23)cc1 [Compound 35, 4-hydroxy-3-(2′-methylbiphenyl-4-yl)-5-pyridin-3-yl-6,7-dihydro-thieno[2,3-b]pyridin-6-one]	161%	> 10 µM
Cc1ccc(-c2ccc(-c3csc4[nH]c(=O)c(-c5ccccc5)c(O)c34)cc2)cc1 [Compound 14, 4-hydroxy-3-(4′-methylbiphenyl-4-yl)-5-phenyl-6,7-dihydro-thieno[2,3-b]pyridin-6-one]	176%	–
COc1ccccc1-c1ccc(-c2csc3[nH]c(=O)c(-c4ccccc4)c(O)c23)cc1 [Compound 2, 4-hydroxy-3-(2′-methoxybiphenyl-4-yl)-5-phenyl-6,7-dihydro-thieno[2,3-b]pyridin-6-one]	158%	> 10 µM
Cc1ccc(-c2ccc(-c3csc4[nH]c(=O)c(-c5cccnc5)c(O)c34)cc2)cc1 [Compound 37, 4-hydroxy-3-(4′-methylbiphenyl-4-yl)-5-pyridin-3-yl-6,7-dihydro-thieno[2,3-b]pyridin-6-one]	168%	–
O=c1[nH]c2scc(-c3ccc(-c4ccccc4F)cc3)c2c(O)c1-c1cccnc1 [Compound 32, 3-(2′-fluorobiphenyl-4-yl)-4-hydroxy-5-pyridin-3-yl-6,7-dihydro-thieno[2,3-b]pyridin-6-one]	159%	–
COc1cc(-c2csc3[nH]c(=O)c(-c4ccccc4)c(O)c23)ccc1-c1ccc(F)cc1 [Compound 47, 3-(4′-fluoro-2-methoxybiphenyl-4-yl)-4-hydroxy-5-phenyl-6,7-dihydro-thieno[2,3-b]pyridin-6-one]	118%	–
CS(=O)(=O)c1ccc(-c2ccc(-c3csc4[nH]c(=O)c(-c5ccccc5)c(O)c34)cc2)cc1 [Compound 20, 4-hydroxy-3-(4′-methylsulfonylbiphenyl-4-yl)-5-phenyl-6,7-dihydro-thieno[2,3-b]pyridin-6-one]	206%	> 10 µM
O=c1[nH]c2scc(-c3ccc(-c4ccc(F)cc4O)cc3)c2c(O)c1-c1ccccc1 [Compound 21, 3-(4′-fluoro-2′-hydroxybiphenyl-4-yl)-4-hydroxy-5-phenyl-6,7-dihydro-thieno[2,3-b]pyridin-6-one]	187%	–
COc1cc(-c2csc3[nH]c(=O)c(-c4ccccc4)c(O)c23)ccc1-c1ccc(C(=O)O)cc1 [Compound 52, 4′-(4-hydroxy-6-oxo-5-phenyl-6,7-dihydro-thieno[2,3-b]pyridin-3-yl)-2′-methoxybiphenyl-4-carboxylic acid]	219%	–
O=c1[nH]c2scc(-c3ccc(-c4ccc(C(F)(F)F)cc4)cc3)c2c(O)c1-c1ccccc1 [Compound 16, 4-hydroxy-5-phenyl-3-(4′-trifluoromethylbiphenyl-4-yl)-6,7-dihydro-thieno[2,3-b]pyridin-6-one]	101%	–
COc1cc(-c2csc3[nH]c(=O)c(-c4ccccc4)c(O)c23)ccc1-c1cccc(CO)c1 [Compound 55, 4-hydroxy-3-(3′-hydroxymethyl-2-methoxybiphenyl-4-yl)-5-phenyl-6,7-dihydro-thieno[2,3-b]pyridin-6-one]	160%	–
Cc1cccc(-c2ccc(-c3csc4[nH]c(=O)c(-c5ccccc5)c(O)c34)cc2)c1 [Compound 11, 4-hydroxy-3-(3′-methylbiphenyl-4-yl)-5-phenyl-6,7-dihydro-thieno[2,3-b]pyridin-6-one]	150%	> 10 µM
O=c1[nH]c2scc(-c3ccc(-c4ccccc4O)cc3)c2c(O)c1-c1cccnc1 [Compound 31, 4-hydroxy-3-(2′-hydroxybiphenyl-4-yl)-5-pyridin-3-yl-6,7-dihydro-thieno[2,3-b]pyridin-6-one]	143%	–
Cc1ccccc1-c1ccc(-c2csc3[nH]c(=O)c(-c4ccccc4)c(O)c23)cc1 [Compound 7, 4-hydroxy-3-(2′-methylbiphenyl-4-yl)-5-phenyl-6,7-dihydro-thieno[2,3-b]pyridin-6-one]	141%	> 10 µM
Cc1ccc(-c2ccc(-c3csc4[nH]c(=O)c(-c5ccccc5)c(O)c34)cc2O)cc1 [Compound 50, 4-hydroxy-3-(2-hydroxy-4′-methylbiphenyl-4-yl)-5-phenyl-6,7-dihydro-thieno[2,3-b]pyridin-6-one]	421%	–
COc1cc(-c2csc3[nH]c(=O)c(-c4ccccc4)c(O)c23)ccc1-c1ccccc1 [Compound 45, 4-hydroxy-3-(2-methoxybiphenyl-4-yl)-5-phenyl-6,7-dihydro-thieno[2,3-b]pyridin-6-one]	120%	–
